Results as given in patent US20100204144A1, “USE OF THE PEPTIDES MAIPPKKNQDK (COW KAPPA CASEIN 106-116) AND/OR YGFQNA (SERORPHIN) AS THERAPEUTIC AGENTS” (priority 2007, published 2010).
Where no end group is shown, it is not given here.

Tests used:
HIV-1IIIB = experiment: HIV-1 antiviral assay in CEM-SS cells (MTS read-out of virus cell killing)
[1] = system: hepatitis B virus (HBV) ayw strain; experiment: HBV assay in HepG2-2.2.15 cells (secreted HBV DNA, TaqMan PCR); format: cell-based; details: 10 micrograms per ml, six days, HBV DNA in supernatant
Excerpt: HepG2-2.2.15 is a stable cell line containing the hepatitis B virus (HBV) ayw strain genome (ATCC Cat. No. CRL-11997). Antiviral compounds blocking any late step of viral replication such as transcription, translation, pregenome encapsidation, reverse transcription, particle assembly and release can be identified and characterized using this cell line. In this assay, an active compound will reduce the production of secreted HBV from cells, measured by utilizing real time quantitative PCR (TaqMan) assay to directly and accurately measure HBV DNA copies.
HepG2-2.2.15 cells were plated in 96-well microtiter plates. After 16-24 hours the confluent monolayer of HepG2-2.2.15 cells was washed and the medium was replaced with complete medium containing test peptides—10 micrograms per ml—in duplicate. […] Six days following the initial administration of the peptides, the cell culture supernatants was collected, treated with pronase and DNAse and then used in a real-time quantitative TaqMan PCR assay. The PCR-amplified HBV DNA was detected in real-time by monitoring increases in fluorescence signals that result from the exonucleolytic degradation of a quenched fluorescence probe molecule that hybridizes to the amplified HBV DNA. […] Antiviral activity was calculated from the reduction in HBV DNA levels (% virus control). […]

[2] = system: Human Peripheral Blood Mononuclear Cells (PBMC), B cell proliferation; experiment: B cell proliferation assay (SAC plus Interleukin-2, 3H-thymidine); format: cell-based; details: 10 micrograms per ml; SAC plus IL-2 stimulated PBMC
Experimental: Human Peripheral Blood Mononuclear Cells (PBMC) were obtained from normal human donors. The B cell proliferation was induced by stimulation of the cells with the B cell mitogen Staphylococcus aureus Cowans I (SAC) plus Interleukin-2, either in the absence (positive proliferation control), or in the presence of test peptides—10 micrograms per ml—to examine their effects on the B cell response. 10^5/well PBMC were plated in 96-well microtiter plates and assayed in duplicate with the peptides. […] At the end of incubation time, the plates were harvested and the cells counted by liquid scintillation for the incorporation of ^3H-thymidine as a measure of B cell proliferation.

[3] = system: IL-2, IL-4, IL-5, IFN-γ and TNF-α protein levels of spleen cells; experiment: Th1/Th2 cytokine profiling assay (Ovalbumin-restimulated spleen cells, CBA kit); format: cell-based, Balb/c mice; details: 10 micrograms per ml; Ovalbumin restimulation, 72 hours
Excerpt: The Balb/c mice (originated in 1923, it is a popular strain and is used in many different research disciplines. Also classified as an inbred from the production of 20 or more successive brother-sister matings, the Balb/c mouse is albino and small in size) were immunized on Days 1, 15, and 29 with Ovalbumin (Ovalbumin is the main protein found in egg white, commonly used to stimulate an immunological reaction in test animals) in PBS (5 micrograms/injection). On day 50, spleens of the mice were harvested (3 weeks after last boost with Ovalbumin). […] Thereafter, additional Ovalbumin was added to the cells at 10 micrograms/ml for in vitro restimulation of the cells. 72 hours later, cell supernatants were harvested and assayed using the Becton Dickinson Mouse Th1/Th2 Cytokine CBA Kit. This kit can be used to measure Interleukin-2 (IL-2), Interleukin-4 (IL-4), Interleukin-5 (IL-5), Interferon-γ (IFN-γ), and Tumor Necrosis Factor-α (TNF-α) protein levels in a single sample.

[4] = system: Primary Human endothelial cells (HUVEC); experiment: Endothelial cell migration assay; format: cell-based; details: 10 micrograms per ml, 22 hours
Experimental: Thereafter, designated concentration of testing peptides -10 micrograms per ml—was added in duplicate wells.

HUVEC = experiment: Endothelial tube formation assay; format: cell-based, human; details: 10 micrograms per ml, 20 hours
Excerpt: Positive control was vehicle only.

[5] = system: cyclic AMP generation in human peripheral blood mononuclear cells (PBMC); experiment: cAMP induction assay (ELISA); format: cell-based; details: 10 min at 37° C.
Experimental: The cAMP kit was used as an immunoassay for the quantitative determination of cyclic AMP generation in human peripheral blood mononuclear cells (PBMC). PBMC were placed in 96-well microtitier plates (50 microliters of cells at 4×10^6/ml) and 50 microliters of medium alone (background control), forskolin (cAMP positive control; 50 micrograms per ml), or test peptides were added. Plates were mixed and incubated for 10 min at 37° C. and the cells were lysed by the addition of 50 microliters of 3% perchloric acid. NaOH was added to neutralize the samples. Plates were centrifuged for 15 min at 2500 rpm and the supernatants removed. The supernatants (diluted 2-fold in assay buffer) were then assayed for the levels of cAMP by ELISA.

| Compound | antiviral activity of positive control compounds (HIV-1) (HIV-1IIIB) | inhibition of HBV replication as compared to the virus control infection [1] [%] | inhibition of the proliferation of specifically stimulated human B-cells [2] [%] | IFNγ spleen cells; TH1 response (% of control) [3] | IL-2 spleen cells (% of control) [3] | IL-4 spleen cells; TH2 response (% of control) [3] | IL-5 spleen cells; TH2 response (% of control) [3] | TNF-a spleen cells; TH1 response (% of control) [3] | induction of the migration of human endothelial cells [4] [%] | inhibition of the tube formation of endothelial cells (HUVEC) [%] | induction of cAMP formation in human peripheral blood cells [5] [%] |
| --- | --- | --- | --- | --- | --- | --- | --- | --- | --- | --- | --- |
| Cc1cn([C@H]2C[C@H](N=[N+]=[N-])[C@@H](CO)O2)c(=O)[nH]c1=O [AZT] | expected levels of antiviral activity | – | – | – | – | – | – | – | – | – | – |
| CC(C)(C)NC(=O)[C@@H]1CN(Cc2cccnc2)CCN1C[C@@H](O)C[C@@H](Cc1ccccc1)C(=O)N[C@H]1c2ccccc2C[C@H]1O [indinavir] | expected levels of antiviral activity | – | – | – | – | – | – | – | – | – | – |
| Met-Ala-Ile-Pro-Pro-Lys-Lys-Asn-Gln-Asp-Lys-OH (MAIPPKKNQDK-OH) [peptide 1] | – | 29.4 | 21.2 | 63.4 % of control | 0.0 % of control | 0.0 % of control | 57.1 % of control | 74.9 % of control | 22 | 23 | 5.3 |
| Tyr-Gly-Phe-Gln-Asn-Ala-OH (YGFQNA-OH) [peptide 2] | – | 35.7 | 7.1 | 48.2 % of control | 0.0 % of control | 0.0 % of control | 42.2 % of control | 81.4 % of control | 26 | 21 | 1.8 |
